Measurements taken from US20220162215A1, “COMPOSITIONS AND METHODS OF USING THE SAME FOR TREATMENT OF NEURODEGENERATIVE AND MITOCHONDRIAL DISEASE” (MITOKININ, INC., priority 2019, published 2022).
Like-named read-outs stand apart in the source and are kept apart here.

Key:
[1] = tested on: GDF15; experiment: Cisplatin mouse model of mitochondrial dysfunction (GDF15 qPCR, kidney); type: in vivo, mice; conditions: oral dosing; i.p. cisplatin; FIG. 34
Description: Cisplatin is a chemotherapeutic agent reported in the literature to induce mitochondrial damage (see: Yang, Z., et al. “Cisplatin Preferentially Binds Mitochondrial DNA and Voltage-Dependent Anion Channel Protein in the Mitochondrial Membrane of Head and Neck Squamous Cell Carcinoma: Possible Role in Apoptosis.” Clinical Cancer Research 12, no. 19 (2006), 5817-5825). Growth and Differentiation Factor 15 (GDF15) is an established biomarker of mitochondrial disease and certain neurodegenerative diseases (see: Montero, R, et al. “GDF-15 Is Elevated in Children with Mitochondrial Diseases and Is Induced by Mitochondrial Dysfunction.” PLOS ONE 11, no. 2 (2016); Nohara, S, et al. “GDF-15, a mitochondrial disease biomarker, is associated with the severity of multiple sclerosis”, Journal of Neurological Sciences, Vol 405 (2019)). Briefly, mice approximately 10 weeks in age were challenged with a single intraperitoneal dose of cisplatin (10 mg/kg), then treated daily via oral gavage with either compound 35985 at various doses or vehicle control. On day 7, the animals were sacrificed. Kidneys were removed and homogenized. Following published methods, qPCR was performed on the kidney samples to determine expression levels of GDF15.

[2] = tested on: HeLa MKYP cells; experiment: Human mitophagy assay (HeLa MKYP, mtKeima FACS, FCCP/oligomycin); type: cell-based; conditions: for EC50: Homo sapiens, HeLa
Protocol: Briefly, HeLa MKYP cells were plated at 10,000 cells/well in 96 well plates along with compounds at various concentrations. Following 16 hrs of incubation, cells were treated with 1 uM FCCP/oligomycin for 6 hours, then analyzed via FACS for the presence of mitochondria in lysosomes (as determined by an emissions spectrum shift from the pH-sensitive mtKeima tag). Examples are shown in FIG. 1 through FIG. 13 below.

[3] = tested on: HeLa MKYP cells; experiment: Toxicity / cell death measured by DAPI staining (take-up); type: cell-based
Protocol: H2O2 treatment was performed as a control for cell death as measured by DAPI staining.
Briefly, HeLa MKYP cells were plated at 10,000 cells/well in 96 well plates along with compounds at various concentrations. Following 16 hrs of incubation, cells were treated with 1 uM FCCP/oligomycin for 6 hours, then analyzed via FACS for the presence of mitochondria in lysosomes (as determined by an emissions spectrum shift from the pH-sensitive mtKeima tag).

FC(F)(F)c1cc2c(NC3CCCc4ccccc43)ncnc2[nH]1 (stereo not drawn) [Compound 15]
expression of mitochondrial disease marker GDF15 [1]: reduces expression of mitochondrial disease marker GDF15
EC50 ([2]; Table 3 Supplement B, read-out: Mitophagy EC50 (HeLa mKeima assay)): 440 ± 120 nM
EC50 ([2]; Table 4, read-out: Potency (EC50 Max Mitophagy)): 440 ± 120 nM
mitophagy as measured by FACS mKeima ([2]; PINK1wt vs PINK1ko cell lines, FIG. 19): increases mitophagy as measured by FACS mKeima in PINK1^wt but not PINK1^ko cell lines
Potency at 1 μM F/O toxin* ([2]; Table 2, % activation of mitophagy at 1.6 μM treatment of the compound): 55.5%
Toxicity (% positive for DAPI takeup @ 50 μM) ([3]; Table 2): 2.1%
Max cell death at 25 uM compound, 1 uM FO ([3]; Table 3 Supplement B, 25 uM compound, 1 uM FO): 10.7%
Cell death at 25 μM (no FO) ([3]; Table 3 Supplement B, 25 μM, no FO): 2.59%
Toxicity (% positive for DAPI takeup @ 50 μM) ([3]; Table 4): 2.4%
